Assay results: PMC4104029, “Mechanism of Action of Compound-13: An α1-Selective Small Molecule Activator of AMPK” (Chemistry & Biology, 2014)

What was measured:
[1] = system: WT and β2-KO hepatocytes; assay: AMPK signaling, western blotting; assay type: cell-based, mouse; conditions: 1 hr; A769662 100 μM
Method: (§1) Figure 7 C13 Activates Both β1 and β2 Complexes in Mouse Hepatocytes (A) Hepatocytes from WT, AMPKβ1^−/−, and AMPKβ2^−/− mice were incubated with the indicated concentrations of C13 for 1 hr. A769662 (100 μM) was included as a positive control. Lysates were analyzed using western blotting with the indicated antibodies. (B) Mouse hepatocytes from the indicated genotypes were treated with the indicated concentrations of C13 and labeled with [^3H]acetate for 4 hr. Lipogenesis was estimated from the incorporation of acetate into total lipids. Results are expressed as the mean acetate incorporated in micromoles per gram-hour ± SD.

[2] = system: β1-KO hepatocytes; assay: AMPK signaling, western blotting; assay type: cell-based, mouse; conditions: 1 hr; A769662 100 μM
Method: as §1

[3] = target: T1, AMPKα1 complexes in primary hepatocytes (Mus musculus, UniProt O54950+Q5EG47); assay: Isoform-specific immunoprecipitate kinase assay from hepatocytes; assay type: cell-based; conditions: 1 hr; washed immunoprecipitates
T1 construct: AMPKα1 or AMPKα2 complexes were immunoprecipitated from hepatocyte extracts; endogenous in cells; host or cells: primary mouse hepatocytes
T1 sequence (Q5EG47 whole entry, canonical isoform): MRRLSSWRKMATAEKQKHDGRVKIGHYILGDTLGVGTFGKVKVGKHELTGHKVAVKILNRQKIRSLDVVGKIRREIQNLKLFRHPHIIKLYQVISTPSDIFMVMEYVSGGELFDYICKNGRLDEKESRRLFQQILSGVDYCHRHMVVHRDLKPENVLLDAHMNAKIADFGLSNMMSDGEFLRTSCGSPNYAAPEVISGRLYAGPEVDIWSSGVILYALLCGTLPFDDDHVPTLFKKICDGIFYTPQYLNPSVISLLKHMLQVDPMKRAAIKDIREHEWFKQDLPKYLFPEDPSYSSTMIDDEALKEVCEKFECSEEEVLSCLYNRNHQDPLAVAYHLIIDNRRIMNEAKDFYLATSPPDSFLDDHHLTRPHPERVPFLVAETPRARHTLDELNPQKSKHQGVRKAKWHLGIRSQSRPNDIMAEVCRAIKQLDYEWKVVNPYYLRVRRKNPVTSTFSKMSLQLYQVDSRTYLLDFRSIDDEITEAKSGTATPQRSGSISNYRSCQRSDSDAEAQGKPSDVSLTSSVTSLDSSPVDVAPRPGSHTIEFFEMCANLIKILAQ
T1 sequence (Q9R078 2-270 partner limits assumed): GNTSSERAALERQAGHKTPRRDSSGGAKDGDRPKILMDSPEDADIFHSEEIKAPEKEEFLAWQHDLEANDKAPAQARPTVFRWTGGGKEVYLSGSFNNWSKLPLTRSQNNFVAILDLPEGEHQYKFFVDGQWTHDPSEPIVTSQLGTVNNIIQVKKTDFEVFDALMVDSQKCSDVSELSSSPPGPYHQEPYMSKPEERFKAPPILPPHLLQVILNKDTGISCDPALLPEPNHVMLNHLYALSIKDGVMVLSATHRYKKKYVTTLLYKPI
T1 sequence (O54950 whole entry, canonical isoform): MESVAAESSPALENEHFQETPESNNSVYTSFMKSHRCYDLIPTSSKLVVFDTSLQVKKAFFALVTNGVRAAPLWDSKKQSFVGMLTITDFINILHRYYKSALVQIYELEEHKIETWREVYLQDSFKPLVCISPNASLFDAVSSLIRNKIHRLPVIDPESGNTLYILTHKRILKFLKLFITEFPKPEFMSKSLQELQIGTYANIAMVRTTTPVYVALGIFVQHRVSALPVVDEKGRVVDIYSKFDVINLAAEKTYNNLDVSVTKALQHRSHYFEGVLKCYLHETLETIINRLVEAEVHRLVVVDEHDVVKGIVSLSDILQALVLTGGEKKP
Method: (§2) Figure 4 The C2 Prodrug, C13, Potently Activates AMPK in Mouse Primary Hepatocytes (A) Isolated mouse hepatocytes were incubated with vehicle or the indicated concentrations of C13 for 1 hr. AICAR (0.5 mM) was included as a positive control. Cell lysates were analyzed using western blotting with the indicated antibodies. (B) AMPKα1 or AMPKα2 complexes were immunoprecipitated from hepatocyte extracts prepared as described in (A) and assayed for kinase activity using 0.2 mM AMARA and 0.1 mM ATP. Results are expressed as the mean Pi incorporated in picomoles per minute-milligram ± SD. […] Lysates were analyzed using western blotting with the indicated antibodies. (D) Mouse hepatocytes were treated with the indicated compounds for 1 hr, and adenine nucleotide ratios were determined using capillary electrophoresis of perchloric acid extracts. […] Lysates were analyzed using western blotting with the indicated antibodies. […] Lysates were analyzed using western blotting with the indicated antibodies. […]
(§3) AMPK phosphotransferase activity was assayed in reactions (50 μl) containing 50 mM HEPES, pH 7.4, 10 mM MgCl2, 0.1 mM EGTA, 1 mM DTT, 0.01% BRIJ-35, 100 μM [γ-^32P]ATP (∼250 CPM⋅pmol^−1) and 200 μM AMARA (AMARAASAAALARRR). […] Washed filters were dried and [^32P] incorporation determined by Cherenkov counting. […]

[4] = target: T2, AMPKα2 complexes in primary hepatocytes (Mus musculus, UniProt O54950+Q8BRK8); assay: as above; assay type: cell-based; conditions: 1 hr; washed immunoprecipitates
T2 construct: AMPKα1 or AMPKα2 complexes were immunoprecipitated from hepatocyte extracts; endogenous in cells; host or cells: primary mouse hepatocytes
T2 sequence (Q8BRK8 whole entry): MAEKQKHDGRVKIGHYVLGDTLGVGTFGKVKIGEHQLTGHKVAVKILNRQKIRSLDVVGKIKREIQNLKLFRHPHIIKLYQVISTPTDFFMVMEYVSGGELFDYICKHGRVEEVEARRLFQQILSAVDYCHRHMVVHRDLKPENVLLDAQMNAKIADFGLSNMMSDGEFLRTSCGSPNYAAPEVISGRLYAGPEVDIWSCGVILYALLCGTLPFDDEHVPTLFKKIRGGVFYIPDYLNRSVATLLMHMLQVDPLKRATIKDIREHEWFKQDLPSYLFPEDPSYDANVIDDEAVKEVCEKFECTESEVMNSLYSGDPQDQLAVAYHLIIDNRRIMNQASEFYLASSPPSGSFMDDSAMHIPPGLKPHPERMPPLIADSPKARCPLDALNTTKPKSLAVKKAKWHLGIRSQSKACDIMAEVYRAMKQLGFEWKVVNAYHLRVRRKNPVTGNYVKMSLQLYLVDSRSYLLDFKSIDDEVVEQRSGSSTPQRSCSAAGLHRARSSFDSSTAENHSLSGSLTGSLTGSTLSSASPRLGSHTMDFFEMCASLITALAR
T2 sequence (Q9R078 2-270 partner limits assumed): as the sequence (Q9R078 2-270 partner limits assumed) above
T2 sequence (O54950 whole entry): as the sequence (O54950 whole entry, canonical isoform) above
Method: as §2, §3

CC(C)C(=O)OCOP(=O)(OCOC(=O)C(C)C)c1ccc(C2=NOC(=O)C2)o1 [Compound C13]
phosphorylation of Thr172 and ACC, as well as Raptor [1]: robustly stimulated | stimulation of AMPK (Thr172 phosphorylation) [2]: modestly stimulated | concentration at which complexes were stimulated [3]: 3 µM | concentration above which activation was evident [4]: above 30 μM
